Experimental data reported in paper PMC4648982 (Chemistry Central Journal, 2015).
“Also recorded” adds a separate entry of the source. Counter-ions that a name gives are not always drawn.

Target: jack bean urease (Canavalia ensiformis, UniProt P07374)
Test: biochemical
Conditions: for urease inhibitory activity in words: in vitro assay, authors' verbal grading
Method: Reaction mixture comprising of 25μL of enzyme (jack bean urease) (1 unit/well) solution and 55 μL of phosphate buffers (4 mM) containing 100 mM urea were incubated with 5 μL of test compounds dissolved in methanol (0.5 mM concentration) at 30 °C for 15 min in 96-well plates. Urease activity was determined by measuring ammonia production using the indophenol method as described by Weather burn. Briefly, 45 μl each phenol reagent (1 % w/v phenol and 0.005 % w/v sodium nitroprussside) and 70 μL of alkali reagent(0.5 % w/v NaOH and 0.1 % active chloride NaOCl) were added to each well. The increasing absorbance at 630 nm was measured afther 50 min, using a microplate reader (Molecular Device, USA). All reactions were performed in triplicate in a final volume of 200 μL. The results (change in absorbance per min) were processed by using softMax Pro software (molecular Device, USA). The entire assays were performed at pH 6.8. Percentage inhibitions were calculated from the formula 100 − (ODtestwell/ODcontrol) × 100. Thiourea was used as the standard inhibitor of urease.

Chain of jack bean urease (P07374 whole entry, looked up): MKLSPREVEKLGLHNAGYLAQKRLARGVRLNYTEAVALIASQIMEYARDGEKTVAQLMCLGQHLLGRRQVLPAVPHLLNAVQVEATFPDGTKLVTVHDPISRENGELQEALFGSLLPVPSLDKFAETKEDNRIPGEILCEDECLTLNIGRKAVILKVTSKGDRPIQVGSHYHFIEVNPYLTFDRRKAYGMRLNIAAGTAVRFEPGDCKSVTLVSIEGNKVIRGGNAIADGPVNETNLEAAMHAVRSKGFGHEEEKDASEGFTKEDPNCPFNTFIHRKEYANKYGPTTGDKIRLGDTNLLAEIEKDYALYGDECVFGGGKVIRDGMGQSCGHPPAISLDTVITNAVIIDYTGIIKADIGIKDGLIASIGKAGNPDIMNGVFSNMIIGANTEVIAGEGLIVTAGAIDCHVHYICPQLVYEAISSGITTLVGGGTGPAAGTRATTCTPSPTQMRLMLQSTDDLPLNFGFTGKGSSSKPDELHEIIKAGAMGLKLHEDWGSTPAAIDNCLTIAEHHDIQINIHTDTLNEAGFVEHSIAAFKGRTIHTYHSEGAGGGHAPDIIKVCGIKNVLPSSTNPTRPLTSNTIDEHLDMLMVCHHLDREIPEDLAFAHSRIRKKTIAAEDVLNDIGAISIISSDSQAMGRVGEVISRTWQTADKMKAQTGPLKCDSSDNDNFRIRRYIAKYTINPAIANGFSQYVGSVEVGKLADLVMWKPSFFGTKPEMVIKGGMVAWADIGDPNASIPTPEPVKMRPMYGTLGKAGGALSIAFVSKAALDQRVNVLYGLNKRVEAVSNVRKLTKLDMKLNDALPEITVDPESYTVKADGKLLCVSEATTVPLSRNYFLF

Structure (SMILES) | IC50 | urease inhibitory activity in words
Cn1c(O)c(C(C2=C(O)CC(C)(C)CC2=O)c2ccccc2)c(=O)n(C)c1=O (stereo not shown) [Compound 4m, 5-((2-Hydroxy-4,4-dimethyl-6-oxocyclohex-1-en-1-yl)(phenyl)methyl)-1,3-dimethyl-2,6-dioxo-1,2,3,6-tetrahydropyrimidin-4-olate diethylaminium salt] | 39.3 ± 0.79 µM | –
Cc1ccc(C(C2=C(O)CC(C)(C)CC2=O)c2c(O)n(C)c(=O)n(C)c2=O)cc1 (stereo not shown) [Compound 4n, 5-((2-Hydroxy-4,4-dimethyl-6-oxocyclohex-1-en-1-yl)(p-tolyl)methyl)-1,3-dimethyl-2,6-dioxo-1,2,3,6-tetrahydropyrimidin-4-olate diethylaminium salt] | 41.2 ± 0.58 µM | –
COc1ccc(C(C2=C(O)CC(C)(C)CC2=O)c2c(O)n(C)c(=O)n(C)c2=O)cc1 (stereo not shown) [Compound 4o, 5-((2-Hydroxy-4,4-dimethyl-6-oxocyclohex-1-en-1-yl)(4-methoxyphenyl)methyl)-1,3-dimethyl-2,6-dioxo-1,2,3,6-tetrahydropyrimidin-4-olate diethylaminium salt] | 83 ± 0.66 µM | –
Cn1c(O)c(C(C2=C(O)CC(C)(C)CC2=O)c2ccc(Cl)cc2)c(=O)n(C)c1=O (stereo not shown) [Compound 4p, 5-((4-Chlorophenyl)(2-hydroxy-4,4-dimethyl-6-oxocyclohex-1-en-1-yl)methyl)-1,3-dimethyl-2,6-dioxo-1,2,3,6-tetrahydropyrimidin-4-olate diethylaminium salt] | 39.7 ± 0.7 µM | –
Cn1c(O)c(C(C2=C(O)CC(C)(C)CC2=O)c2ccc(Br)cc2)c(=O)n(C)c1=O (stereo not shown) [Compound 4q, 5-((4-Bromophenyl)(2-hydroxy-4,4-dimethyl-6-oxocyclohex-1-en-1-yl)methyl)-1,3-dimethyl-2,6-dioxo-1,2,3,6-tetrahydropyrimidin-4-olate diethylaminium salt] | 24.6 ± 0.42 µM | –
Cn1c(O)c(C(C2=C(O)CC(C)(C)CC2=O)c2cccc(Br)c2)c(=O)n(C)c1=O (stereo not shown) [Compound 4r, 5-((3-Bromophenyl)(2-hydroxy-4,4-dimethyl-6-oxocyclohex-1-en-1-yl)methyl)-1,3-dimethyl-2,6-dioxo-1,2,3,6-tetrahydropyrimidin-4-olate diethylaminium salt] | 27.5 ± 0.19 µM | –
Cn1c(O)c(C(C2=C(O)CC(C)(C)CC2=O)c2ccccc2[N+](=O)[O-])c(=O)n(C)c1=O (stereo not shown) [Compound 4s, 5-((2-Hydroxy-4,4-dimethyl-6-oxocyclohex-1-en-1-yl)(1-nitrophenyl)methyl)-1,3-dimethyl-2,6-dioxo-1,2,3,6-tetrahydropyrimidin-4-olate diethylaminium salt] | 110 ± 1.1 µM | inactivity
CN(C)c1ccc(C(C2=C(O)CC(C)(C)CC2=O)c2c(O)n(C)c(=O)n(C)c2=O)cc1 (stereo not shown) [Compound 4t, 5-((2-Hydroxy-4,4-dimethyl-6-oxocyclohex-1-en-1-yl)(4-(dimethylamino)phenyl)methyl)-1,3-dimethyl-2,6-dioxo-1,2,3,6-tetrahydropyrimidin-4-olate diethylaminium salt] | 142.1 ± 0.64 µM | least active; also recorded: inactivity
Cn1c(O)c(C(C2=C(O)CC(C)(C)CC2=O)c2ccc(O)cc2)c(=O)n(C)c1=O (stereo not shown) [Compound 4v, 5-((2-Hydroxy-4,4-dimethyl-6-oxocyclohex-1-en-1-yl)(4-hydroxyphenyl)methyl)-1,3-dimethyl-2,6-dioxo-1,2,3,6-tetrahydropyrimidin-4-olate diethylaminium salt] | 52.2 ± 1.26 µM | –
Cn1c(O)c(C(C2=C(O)CC(C)(C)CC2=O)c2ccc(Cl)cc2Cl)c(=O)n(C)c1=O (stereo not shown) [Compound 4w, 5-((2,4-Dichlorophenyl)(2-hydroxy-4,4-dimethyl-6-oxocyclohex-1-en-1-yl)methyl)-1,3-dimethyl-2,6-dioxo-1,2,3,6-tetrahydropyrimidin-4-olate diethylaminium salt] | 59.4 ± 0.98 µM | –
Cn1c(O)c(C(C2=C(O)CC(C)(C)CC2=O)c2ccc(C=O)cc2)c(=O)n(C)c1=O (stereo not shown) [Compound 4x, 4-((6-hydroxy-1,3-dimethyl-2,4-dioxo-1,2,3,4-tetrahydropyrimidin-5-yl)(2-hydroxy-4,4-dimethyl-6-oxocyclohex-1-en-1-yl)methyl)benzaldehyde diethylaminium salt] | 38.5 ± 0.28 µM | –
Cn1c(O)c(C(C2=C(O)CC(C)(C)CC2=O)c2c(Cl)cccc2Cl)c(=O)n(C)c1=O (stereo not shown) [Compound 4y, 5-((2,6-Dichlorophenyl)(2-hydroxy-4,4-dimethyl-6-oxocyclohex-1-en-1-yl)methyl)-1,3-dimethyl-2,6-dioxo-1,2,3,6-tetrahydropyrimidin-4-olate diethylaminium salt] | 83.4 ± 1 µM | –
Cn1c(O)c(C(C2=C(O)CC(C)(C)CC2=O)c2ccc3ccccc3c2)c(=O)n(C)c1=O (stereo not shown) [Compound 4z, 5-((2-Hydroxy-4,4-dimethyl-6-oxocyclohex-1-en-1-yl)(naphthalen-2-yl)methyl)-1,3-dimethyl-2,6-dioxo-1,2,3,6-tetrahydropyrimidin-4-olate diethylaminium salt] | 39.8 ± 1.38 µM | –
CC1(C)CC(=O)C(C(C2=C(O)CC(C)(C)CC2=O)c2ccccc2)=C(O)C1 [Compound 5a, 2-((2-Hydroxy-4,4-dimethyl-6-oxocyclohex-1-en-1-yl)(phenyl)methyl)-5,5-dimethyl-3-oxocyclohex-1-enolate diethylaminium salt] | 74.5 ± 0.88 µM | –
CC1(C)CC(=O)C(C(C2=C(O)CC(C)(C)CC2=O)c2ccc(Cl)cc2)=C(O)C1 [Compound 5b, 2-((4-Chlorophenyl)(2-hydroxy-4,4-dimethyl-6-oxocyclohex-1-en-1-yl)methyl)-5,5-dimethyl-3-oxocyclohex-1-enolate diethylaminium salt] | 29.7 ± 0.67 µM | –
COc1ccc(C(C2=C(O)CC(C)(C)CC2=O)C2=C(O)CC(C)(C)CC2=O)cc1 [Compound 5e, 2-((2-Hydroxy-4,4-dimethyl-6-oxocyclohex-1-en-1-yl)(4-methoxyphenyl)methyl)-5,5-dimethyl-3-oxocyclohex-1-enolate diethylaminium salt] | 39.8 ± 0.75 µM | –
CC1(C)CC(=O)C(C(C2=C(O)CC(C)(C)CC2=O)c2ccc([N+](=O)[O-])cc2)=C(O)C1 [Compound 5f, 2-((2-Hydroxy-4,4-dimethyl-6-oxocyclohex-1-en-1-yl)(4-nitrophenyl)methyl)-5,5-dimethyl-3-oxocyclohex-1-enolate diethylaminium salt] | 106 ± 1.49 µM | inactivity
CC1(C)CC(=O)C(C(C2=C(O)CC(C)(C)CC2=O)c2c(Cl)cccc2Cl)=C(O)C1 [Compound 5g, 2-((2,6-Dichlorophenyl)(2-hydroxy-4,4-dimethyl-6-oxocyclohex-1-en-1-yl)methyl)-5,5-dimethyl-3-oxocyclohex-1-enolate diethylaminium salt] | 170.7 ± 1.55 µM | least active; also recorded: inactivity
CC1(C)CC(=O)C(C(C2=C(O)CC(C)(C)CC2=O)c2cccc([N+](=O)[O-])c2)=C(O)C1 [Compound 5h, 2-((2-Hydroxy-4,4-dimethyl-6-oxocyclohex-1-en-1-yl)(3-nitrophenyl)methyl)-5,5-dimethyl-3-oxocyclohex-1-enolate diethylaminium salt] | 49 ± 0.55 µM | good urease inhibitory activity
CC1(C)CC(=O)C(C(C2=C(O)CC(C)(C)CC2=O)c2ccccc2[N+](=O)[O-])=C(O)C1 [Compound 5i, 2-((2-Hydroxy-4,4-dimethyl-6-oxocyclohex-1-en-1-yl)(2-nitrophenyl)methyl)-5,5-dimethyl-3-oxocyclohex-1-enolate diethylaminium salt] | 210.1 ± 0.29 µM | inactivity
CC1(C)CC(=O)C(C(C2=C(O)CC(C)(C)CC2=O)c2ccc(C=O)cc2)=C(O)C1 [Compound 5j, 2-((4-Formylphenyl)(2-hydroxy-4,4-dimethyl-6-oxocyclohex-1-en-1-yl)methyl)-5,5-dimethyl-3-oxocyclohex-1-enolate diethylaminium salt] | 72.6 ± 0.59 µM | –
CC1(C)CC(=O)C(C(C2=C(O)CC(C)(C)CC2=O)c2ccc(O)cc2)=C(O)C1 [Compound 5k, 2-((2-Hydroxy-4,4-dimethyl-6-oxocyclohex-1-en-1-yl)(4-hydroxyphenyl)methyl)-5,5-dimethyl-3-oxocyclohex-1-enolate diethylaminium salt] | 43.8 ± 0.33 µM | good urease inhibitory activity
Cn1c(O)c(C(c2ccc(C=O)cc2)c2c(O)[nH]c(=O)[nH]c2=O)c(=O)n(C)c1=O (stereo not shown) [Compound 5l, 4-((6-Hydroxy-1,3-dimethyl-2,4-dioxo-1,2,3,4-tetrahydropyrimidin-5-yl)(6-hydroxy-2,4-dioxo-1,2,3,4-tetrahydropyrimidin-5-yl)methyl)benzaldehyde diethylaminium salt] | 17.2 ± 0.44 µM | most active
CC1(C)CC(=O)C(C(c2ccc(Cl)cc2)c2c(O)[nH]c(=O)[nH]c2=O)=C(O)C1 (stereo not shown) [Compound 5m, 5-((4-Chlorophenyl)(2-hydroxy-4,4-dimethyl-6-oxocyclohex-1-en-1-yl)methyl)-2,6-dioxo-1,2,3,6-tetrahydropyrimidin-4-olate diethylaminium salt] | 65.9 ± 0.61 µM | –
CC1(C)CC(=O)C(C(c2ccccc2)c2c(O)[nH]c(=O)[nH]c2=O)=C(O)C1 (stereo not shown) [Compound 5n, 5-((2-Hydroxy-4,4-dimethyl-6-oxocyclohex-1-en-1-yl)(phenyl)methyl)-2,6-dioxo-1,2,3,6-tetrahydropyrimidin-4-olate diethylaminium salt] | 23.7 ± 0.57 µM | active
